#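 The compound was tested at five concentrations on cells cultured in 96-well plates, with a 48-hour exposure period. GI50 = concentration required for 50% inhibition of growth. TGI: total growth inhibition.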
# Tests used:
# Test in all cases: inhibition of tumour cell growth, NCI panel, 48 h
# SN12C renal = system: SN12C renal
# IGROV1 ovarian = system: IGROV1 ovarian
# OVCAR-4 ovarian = system: OVCAR-4 ovarian
# UACC-62 melanoma = system: UACC-62 melanoma
# UACC-257 melanoma = system: UACC-257 melanoma
# NCI/ADR-RES ovarian = system: NCI/ADR-RES ovarian
# MDA-MB-468 breast = system: MDA-MB-468 breast
# PC-3 prostate = system: PC-3 prostate
# HS 578T breast = system: HS 578T breast
# SK-OV-3 ovarian = system: SK-OV-3 ovarian
# CAKI-1 renal = system: CAKI-1 renal
# SW-620 colon = system: SW-620 colon
# MDA-MB-435 = system: MDA-MB-435
# M14 melanoma = system: M14 melanoma
# SF-539 CNS = system: SF-539 CNS
# RPMI-8226 leukemia = system: RPMI-8226 leukemia
# HT29 colon = system: HT29 colon
# RXF 393 renal = system: RXF 393 renal
# K-562 leukemia = system: K-562 leukemia
# UO-31 renal = system: UO-31 renal
# COLO 205 colon = system: COLO 205 colon
# CCRF-CEM leukemia = system: CCRF-CEM leukemia
# NCI-H226 lung = system: NCI-H226 lung
# NCI-H460 lung = system: NCI-H460 lung
# MDA-MB-231 breast = system: MDA-MB-231 breast
# TK-10 renal = system: TK-10 renal
# MALME-3M melanoma = system: MALME-3M melanoma
# MOLT-4 leukemia = system: MOLT-4 leukemia
# OVCAR-5 ovarian = system: OVCAR-5 ovarian
# SNB-19 CNS = system: SNB-19 CNS
# LOX IMVI melanoma = system: LOX IMVI melanoma
# EKVX NSCLC = system: EKVX NSCLC
# A549 NSCLC = system: A549 NSCLC
# 786-0 renal = system: 786-0 renal
# T-47D breast = system: T-47D breast
# HCT-15 colon = system: HCT-15 colon
# HOP-62 NSCLC = system: HOP-62 NSCLC
# OVCAR-3 ovarian = system: OVCAR-3 ovarian
# HCC-2998 colon = system: HCC-2998 colon
# ACHN renal = system: ACHN renal
# A498 renal = system: A498 renal
# HL-60(TB) leukemia = system: HL-60(TB) leukemia
# SNB-75 CNS = system: SNB-75 CNS
# NCI-H23 lung = system: NCI-H23 lung
# SR leukemia = system: SR leukemia
# BT-549 breast = system: BT-549 breast
# MCF7 breast = system: MCF7 breast
# NCI-H522 lung = system: NCI-H522 lung
# SK-MEL-28 melanoma = system: SK-MEL-28 melanoma
# U251 CNS = system: U251 CNS
# KM12 colon = system: KM12 colon
# DU-145 prostate = system: DU-145 prostate
# OVCAR-8 ovarian = system: OVCAR-8 ovarian
# HCT-116 colon = system: HCT-116 colon
# SF-295 CNS = system: SF-295 CNS
# SF-268 CNS = system: SF-268 CNS
# SK-MEL-5 melanoma = system: SK-MEL-5 melanoma
# SK-MEL-2 melanoma = system: SK-MEL-2 melanoma
# HOP-92 NSCLC = system: HOP-92 NSCLC
smiles,measurement,setting,value
CC(=O)Nc1nc(-c2ccc(N3CCN(C)CC3)c(NS(=O)(=O)c3cccc4c(N(C)C)cccc34)c2)cs1,GI50,SN12C renal,12.1 µM
same,TGI,SN12C renal,23.7 µM
same,GI50,IGROV1 ovarian,14.2 µM
same,TGI,IGROV1 ovarian,26.3 µM
same,GI50,OVCAR-4 ovarian,13.6 µM
same,TGI,OVCAR-4 ovarian,28.2 µM
same,GI50,UACC-62 melanoma,12.8 µM
same,TGI,UACC-62 melanoma,24.1 µM
same,GI50,UACC-257 melanoma,13.1 µM
same,TGI,UACC-257 melanoma,25.8 µM
same,GI50,NCI/ADR-RES ovarian,16.6 µM
same,TGI,NCI/ADR-RES ovarian,37.1 µM
same,GI50,MDA-MB-468 breast,10.7 µM
same,TGI,MDA-MB-468 breast,22.3 µM
same,GI50,PC-3 prostate,11.2 µM
same,TGI,PC-3 prostate,28.1 µM
same,GI50,HS 578T breast,11.6 µM
same,TGI,HS 578T breast,43.6 µM
same,GI50,SK-OV-3 ovarian,13.2 µM
same,TGI,SK-OV-3 ovarian,26.8 µM
same,GI50,CAKI-1 renal,14 µM
same,TGI,CAKI-1 renal,26.2 µM
same,GI50,SW-620 colon,13.1 µM
same,TGI,SW-620 colon,25.4 µM
same,GI50,MDA-MB-435,13 µM
same,TGI,MDA-MB-435,25.4 µM
same,GI50,M14 melanoma,12.8 µM
same,TGI,M14 melanoma,25.8 µM
same,GI50,SF-539 CNS,9.78 µM
same,TGI,SF-539 CNS,20.1 µM
same,GI50,RPMI-8226 leukemia,8.05 µM
same,TGI,RPMI-8226 leukemia,53.6 µM
same,GI50,HT29 colon,8.91 µM
same,TGI,HT29 colon,21.3 µM
same,GI50,RXF 393 renal,9.16 µM
same,TGI,RXF 393 renal,20.3 µM
same,GI50,K-562 leukemia,15.9 µM
same,TGI,K-562 leukemia,85.5 µM
same,GI50,UO-31 renal,10.9 µM
same,TGI,UO-31 renal,21.7 µM
same,GI50,COLO 205 colon,12.5 µM
same,TGI,COLO 205 colon,27.9 µM
same,GI50,CCRF-CEM leukemia,13.2 µM
same,TGI,CCRF-CEM leukemia,38.2 µM
same,GI50,NCI-H226 lung,13.3 µM
same,TGI,NCI-H226 lung,28.3 µM
same,GI50,NCI-H460 lung,14.4 µM
same,TGI,NCI-H460 lung,29 µM
same,GI50,MDA-MB-231 breast,14.4 µM
same,TGI,MDA-MB-231 breast,26.6 µM
same,GI50,TK-10 renal,16.4 µM
same,TGI,TK-10 renal,29.1 µM
same,GI50,MALME-3M melanoma,11.4 µM
same,TGI,MALME-3M melanoma,22.4 µM
same,GI50,MOLT-4 leukemia,13.3 µM
same,TGI,MOLT-4 leukemia,37.9 µM
same,GI50,OVCAR-5 ovarian,12.6 µM
same,TGI,OVCAR-5 ovarian,23.9 µM
same,GI50,SNB-19 CNS,12.2 µM
same,TGI,SNB-19 CNS,23.5 µM
same,GI50,LOX IMVI melanoma,10.7 µM
same,TGI,LOX IMVI melanoma,21.9 µM
same,GI50,EKVX NSCLC,13.1 µM
same,TGI,EKVX NSCLC,25.7 µM
same,GI50,A549 NSCLC,14.2 µM
same,TGI,A549 NSCLC,30.2 µM
same,GI50,786-0 renal,11.7 µM
same,TGI,786-0 renal,24.6 µM
same,GI50,T-47D breast,12 µM
same,TGI,T-47D breast,28.9 µM
same,GI50,HCT-15 colon,12.6 µM
same,TGI,HCT-15 colon,25.4 µM
same,GI50,HOP-62 NSCLC,12.6 µM
same,TGI,HOP-62 NSCLC,25.8 µM
same,GI50,OVCAR-3 ovarian,11.5 µM
same,TGI,OVCAR-3 ovarian,23.3 µM
same,GI50,HCC-2998 colon,12.4 µM
same,TGI,HCC-2998 colon,24 µM
same,GI50,ACHN renal,13.7 µM
same,TGI,ACHN renal,25.3 µM
same,GI50,A498 renal,13.1 µM
same,TGI,A498 renal,24.5 µM
same,GI50,HL-60(TB) leukemia,9.4 µM
same,TGI,HL-60(TB) leukemia,24.9 µM
same,GI50,SNB-75 CNS,9.24 µM
same,TGI,SNB-75 CNS,19.7 µM
same,GI50,NCI-H23 lung,11.3 µM
same,TGI,NCI-H23 lung,23.6 µM
same,GI50,SR leukemia,3.27 µM
same,TGI,SR leukemia,18.2 µM
same,GI50,BT-549 breast,11.3 µM
same,TGI,BT-549 breast,23.5 µM
same,GI50,MCF7 breast,10.8 µM
same,TGI,MCF7 breast,24 µM
same,GI50,NCI-H522 lung,12.6 µM
same,TGI,NCI-H522 lung,25.6 µM
same,GI50,SK-MEL-28 melanoma,10.5 µM
same,TGI,SK-MEL-28 melanoma,21.1 µM
same,GI50,U251 CNS,11.1 µM
same,TGI,U251 CNS,23.3 µM
same,GI50,KM12 colon,14.4 µM
same,TGI,KM12 colon,28.4 µM
same,GI50,DU-145 prostate,14 µM
same,TGI,DU-145 prostate,26 µM
same,GI50,OVCAR-8 ovarian,16.9 µM
same,TGI,OVCAR-8 ovarian,45.6 µM
same,GI50,HCT-116 colon,12.3 µM
same,TGI,HCT-116 colon,28.8 µM
same,GI50,SF-295 CNS,7.22 µM
same,TGI,SF-295 CNS,18.3 µM
same,GI50,SF-268 CNS,12.4 µM
same,TGI,SF-268 CNS,25.3 µM
same,GI50,SK-MEL-5 melanoma,11.9 µM
same,TGI,SK-MEL-5 melanoma,23.2 µM
same,GI50,SK-MEL-2 melanoma,13.6 µM
same,TGI,SK-MEL-2 melanoma,26.2 µM
same,GI50,HOP-92 NSCLC,9.15 µM
same,TGI,HOP-92 NSCLC,20.4 µM

# Reference: PubChem BioAssay (NCI)
